According to PubChem BioAssay (NCI):
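Method: 48-hour compound exposure of cells in 96-well plates, five concentrations, linear interpolation of endpoints. Abbreviation: GI50, concentration required for 50% inhibition of growth. TGI denotes the concentration required for complete inhibition of growth.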

Columns and labels:
Assay in all cases: inhibition of tumour cell growth, NCI panel, 48 h
HCT-116 colon = system: HCT-116 colon
HL-60(TB) leukemia = system: HL-60(TB) leukemia
NCI-H226 lung = system: NCI-H226 lung
SN12C renal = system: SN12C renal
SR leukemia = system: SR leukemia
OVCAR-8 ovarian = system: OVCAR-8 ovarian
HT29 colon = system: HT29 colon
NCI-H23 lung = system: NCI-H23 lung
HS 578T breast = system: HS 578T breast
A498 renal = system: A498 renal

Structure (SMILES) | GI50 (HCT-116 colon) | TGI (HCT-116 colon) | GI50 (HL-60(TB) leukemia) | TGI (HL-60(TB) leukemia) | GI50 (NCI-H226 lung) | TGI (NCI-H226 lung) | GI50 (SN12C renal) | TGI (SN12C renal) | GI50 (SR leukemia) | TGI (SR leukemia) | GI50 (OVCAR-8 ovarian) | TGI (OVCAR-8 ovarian) | GI50 (HT29 colon) | TGI (HT29 colon) | GI50 (NCI-H23 lung) | TGI (NCI-H23 lung) | GI50 (HS 578T breast) | TGI (HS 578T breast) | TGI (A498 renal) | GI50 (A498 renal)
CC(=O)OCc1cc[c]([Hg][Cl])o1 | 10.1 µM | 24.3 µM | 2.46 µM | 6.28 µM | 19.4 µM | 45.5 µM | 5.24 µM | 29.9 µM | 0.619 µM | 12.3 µM | 11.4 µM | 57.7 µM | 5.61 µM | 26.3 µM | 12.1 µM | 29.7 µM | 9.99 µM | 65.6 µM | – | –
O=Cc1cc2sc(C=O)cc2s1 | – | > 100 µM | – | > 100 µM | – | 59.2 µM | – | > 100 µM | – | > 100 µM | – | > 100 µM | – | > 100 µM | – | > 100 µM | – | – | 34.3 µM | –
O=C1C2=C(c3ccccc31)C(c1ccc([N+](=O)[O-])cc1)NC(=S)N2 (stereo unspecified) | – | > 100 µM | – | > 100 µM | – | > 100 µM | – | > 100 µM | – | – | – | – | – | > 100 µM | – | > 100 µM | – | – | > 100 µM | –
O=C(O)[C@@H](Cc1ccccc1)NS(=O)(=O)c1ccc(-c2ccccc2)cc1 | > 100 µM | > 100 µM | – | – | > 100 µM | > 100 µM | > 100 µM | > 100 µM | – | – | > 100 µM | > 100 µM | > 100 µM | > 100 µM | > 100 µM | > 100 µM | > 100 µM | > 100 µM | > 100 µM | 59.6 µM
CCCCCCCC(=O)[O-].N.N.N.N.N.[Co+3].[O-][Cl+3]([O-])([O-])[O-] | > 100 µM | > 100 µM | > 100 µM | > 100 µM | – | – | > 100 µM | > 100 µM | – | – | > 100 µM | > 100 µM | > 100 µM | > 100 µM | > 100 µM | > 100 µM | – | – | > 100 µM | > 100 µM
Oc1ccc(Cl)cc1N=Nc1c(O)ccc2ccccc12 | – | > 100 µM | – | > 100 µM | – | > 100 µM | – | > 100 µM | – | > 100 µM | – | > 100 µM | – | > 100 µM | – | > 100 µM | – | > 100 µM | – | –
CC1=NN(c2ccccc2)C(=O)C1N=Nc1ccc(Br)cc1C (stereo unspecified) | – | > 100 µM | – | > 100 µM | – | > 100 µM | – | > 100 µM | – | – | – | > 100 µM | – | > 100 µM | – | > 100 µM | – | – | > 100 µM | –
OCC1OC(NO)C(O)C(O)C1O (stereo unspecified) | – | > 100 µM | – | > 100 µM | – | > 100 µM | – | > 100 µM | – | > 100 µM | – | > 100 µM | – | > 100 µM | – | > 100 µM | – | – | > 100 µM | –
C/C(COc1ccccc1)=N\NC(N)=S | – | > 100 µM | – | > 100 µM | – | > 100 µM | – | > 100 µM | – | > 100 µM | – | > 100 µM | – | > 100 µM | – | > 100 µM | – | – | > 100 µM | –
O=S1c2ccccc2N=C(c2cccs2)CC1c1ccccc1O (stereo unspecified) | – | – | – | > 100 µM | – | > 100 µM | – | > 100 µM | – | – | – | > 100 µM | – | > 100 µM | – | > 100 µM | – | – | 99.8 µM | –
